Measured values from US20220127247A1, “N-(PYRIDIN-2-YL)PYRIDINE-SULFONAMIDE DERIVATIVES AND THEIR USE IN THE TREATMENT OF DISEASE” (NOVARTIS AG, priority 2019, published 2022).

Target: T1, delF508-CFTR (Homo sapiens, UniProt P13569, DEL508-508)
T1 construct: expressed in transfected cells
Experiment: Measurement of delF508-CFTR-HRP surface expression in CFBE41o- cells
Assay type: cell-based
Conditions: for EC50: HRP-tagged delF508-CFTR in CFBE41o- cells, 24 h with compound, luminescence, 10-point curve, top 10 μM; for Emax: efficacy relative to reference compound 3-(6-(1-(2,2-difluorobenzo[d][1,3]dioxol-5-yl)cyclopropane-1-carboxamido)-3-methylpyridin-2-yl)benzoic acid, CFBE41o- cells, 24 h, read-out: DelF508-CFTR-HRP Amax %
Method in brief: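 CFBE41o- cells stably expressing delF508-CFTR with HRP in the fourth extracellular loop, induced with 500 ng/mL doxycycline for 48 h, then treated with compound (top 10 μM, 10-point 3-fold) for 24 h at 37° C. Surface HRP detected by luminescence with cell-impermeant substrate; EC50 from logistic fit of triplicates, normalized to lowest concentration.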

T1 sequence (P13569 with tags, fused parts or gaps DEL508-508): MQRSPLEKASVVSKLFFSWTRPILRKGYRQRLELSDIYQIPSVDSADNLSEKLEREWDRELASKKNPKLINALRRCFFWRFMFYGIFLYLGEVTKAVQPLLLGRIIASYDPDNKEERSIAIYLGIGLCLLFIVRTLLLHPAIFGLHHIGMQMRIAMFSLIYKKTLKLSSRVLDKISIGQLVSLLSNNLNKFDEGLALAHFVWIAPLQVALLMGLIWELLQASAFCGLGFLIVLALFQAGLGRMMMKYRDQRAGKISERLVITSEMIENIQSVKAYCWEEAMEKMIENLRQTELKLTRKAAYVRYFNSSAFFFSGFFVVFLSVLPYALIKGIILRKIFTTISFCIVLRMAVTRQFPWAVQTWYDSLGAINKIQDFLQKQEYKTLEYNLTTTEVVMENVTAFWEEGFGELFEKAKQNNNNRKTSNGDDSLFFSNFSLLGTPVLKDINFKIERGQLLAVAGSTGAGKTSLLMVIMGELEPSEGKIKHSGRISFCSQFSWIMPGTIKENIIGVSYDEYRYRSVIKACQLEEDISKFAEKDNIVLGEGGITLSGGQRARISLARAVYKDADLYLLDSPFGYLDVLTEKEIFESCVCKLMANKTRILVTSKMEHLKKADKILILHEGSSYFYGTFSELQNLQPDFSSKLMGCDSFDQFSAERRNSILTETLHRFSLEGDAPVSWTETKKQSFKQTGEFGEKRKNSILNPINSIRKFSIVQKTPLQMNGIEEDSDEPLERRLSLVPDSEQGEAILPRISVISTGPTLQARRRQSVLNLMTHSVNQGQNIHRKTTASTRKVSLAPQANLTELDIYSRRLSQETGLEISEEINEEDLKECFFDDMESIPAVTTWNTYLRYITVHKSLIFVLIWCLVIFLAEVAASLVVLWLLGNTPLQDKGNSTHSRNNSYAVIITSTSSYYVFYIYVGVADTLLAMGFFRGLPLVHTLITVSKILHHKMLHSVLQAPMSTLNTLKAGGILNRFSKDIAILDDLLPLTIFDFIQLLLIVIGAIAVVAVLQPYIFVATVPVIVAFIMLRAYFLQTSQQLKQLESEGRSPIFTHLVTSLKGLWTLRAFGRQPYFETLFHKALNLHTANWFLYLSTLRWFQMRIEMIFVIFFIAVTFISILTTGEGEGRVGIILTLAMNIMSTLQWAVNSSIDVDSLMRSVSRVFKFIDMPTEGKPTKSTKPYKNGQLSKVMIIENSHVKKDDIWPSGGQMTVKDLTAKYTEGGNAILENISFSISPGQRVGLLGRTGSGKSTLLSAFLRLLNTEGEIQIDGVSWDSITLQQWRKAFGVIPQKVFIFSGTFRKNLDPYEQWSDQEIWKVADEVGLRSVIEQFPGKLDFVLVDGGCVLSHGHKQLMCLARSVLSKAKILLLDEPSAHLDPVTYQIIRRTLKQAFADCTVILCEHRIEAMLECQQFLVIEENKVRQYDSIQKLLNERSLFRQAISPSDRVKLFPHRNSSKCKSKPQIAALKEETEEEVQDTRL

| EC50 [nM] | Emax [%] | SMILES |
| --- | --- | --- |
| 2070 | 920 | Cc1ccccc1-c1nc(NS(=O)(=O)c2cccc(N3CCC[C@H](CC(=O)O)C3)n2)ccc1C(F)(F)F [Compound 59, (R)-2-(1-(6-(N-(6-(o-tolyl)-5-(trifluoromethyl)pyridin-2-yl)sulfamoyl)pyridin-2-yl)piperidin-3-yl)acetic Acid] |
| 3260 | 257 | O=C(O)CCNc1cccc(S(=O)(=O)Nc2ccc(C(F)(F)F)c(-c3ccccc3C3CC3)n2)n1 [Compound 39, 3-((6-(N-(6-(2-cyclopropylphenyl)-5-(trifluoromethyl)pyridin-2-yl)sulfamoyl)pyridin-2-yl)amino)propanoic Acid] |
| 2920 | 209 | CCN(CCC(=O)O)c1cc(S(=O)(=O)Nc2ccc(Cl)c(-c3c(C)cccc3C)n2)ccn1 [Compound 140, 3-((4-(N-(5-chloro-6-(2,6-dimethylphenyl)pyridin-2-yl)sulfamoyl)pyridin-2-yl)(ethyl)amino)propanoic Acid] |
| 1810 | 361 | Cc1ccccc1-c1nc(NS(=O)(=O)c2cccc(NC3CCCC(C(=O)O)C3)n2)ccc1C(F)(F)F (mixture of isomers) [Compound 105, 3-((6-(N-(6-(o-tolyl)-5-(trifluoromethyl)pyridin-2-yl)sulfamoyl)pyridin-2-yl)amino)cyclohexane-1-carboxylic Acid] |
| 1680 | 457 | Cc1ccc(F)cc1-c1nc(NS(=O)(=O)c2cccc(N3CCC(C)(CC(=O)O)C3)n2)ccc1C(F)(F)F (stereo not drawn) [Compound 55, 2-(1-(6-(N-(6-(5-fluoro-2-methylphenyl)-5-(trifluoromethyl)pyridin-2-yl)sulfamoyl)pyridin-2-yl)-3-methylpyrrolidin-3-yl)acetic Acid] |
| 1450 | – | CCc1ccccc1-c1nc(NS(=O)(=O)c2cccc(N3CCCC(CCCC(=O)O)C3)n2)ccc1C(F)(F)F (stereo not drawn) [Compound 83, 4-(1-(6-(N-(6-(2-ethylphenyl)-5-(trifluoromethyl)pyridin-2-yl)sulfamoyl)pyridin-2-yl)piperidin-3-yl)butanoic Acid] |
| 2580 | 722 | Cc1cccc(C)c1-c1nc(NS(=O)(=O)c2cccc(NCCCC(=O)O)n2)ccc1Cl [Compound 3, 4-((6-(N-(5-chloro-6-(2,6-dimethylphenyl)pyridin-2-yl)sulfamoyl)pyridin-2-yl)amino)butanoic Acid] |
| 3280 | 167 | Cc1ccccc1-c1nc(NS(=O)(=O)c2cccc(OCCC(=O)O)n2)ccc1C(F)(F)F [Compound 121, 3-((6-(N-(6-(o-tolyl)-5-(trifluoromethyl)pyridin-2-yl)sulfamoyl)pyridin-2-yl)nxy)propanoic Acid] |
| 780 | 641 | CCCCN(CCC(=O)O)c1cccc(S(=O)(=O)Nc2ccc(C(F)(F)F)c(-c3ccccc3C)n2)n1 [Compound 152, 3-(butyl(6-(N-(6-(o-tolyl)-5-(trifluoromethyl)pyridin-2-yl)sulfamoyl)pyridin-2-yl)amino)propanoic Acid] |
| 1810 | 493 | Cc1ccccc1-c1nc(NS(=O)(=O)c2cccc(N(C)CC(C)(C)C(=O)O)n2)ccc1C(F)(F)F [Compound 46, 2,2-dimethyl-3-(methyl(6-(N-(6-(o-tolyl)-5-(trifluoromethyl)pyridin-2-yl)sulfamoyl)pyridin-2-yl)amino)propanoic Acid] |
| 1700 | 742 | CN(CCC(=O)O)c1cccc(S(=O)(=O)Nc2ccc(C(F)(F)F)c(-c3ccccc3C3CC3)n2)n1 [Compound 38, 3-((6-(N-(6-(2-cyclopropylphenyl)-5-(trifluoromethyl)pyridin-2-yl)sulfamoyl)pyridin-2-yl)(methyl)amino)propanoic Acid] |
| 2580 | 596 | Cc1cccc(C)c1-c1nc(NS(=O)(=O)c2cccc(N3CCC(CC(=O)O)CC3)n2)ccc1Cl [Compound 5, 2-(1-(6-(N-(5-chloro-6-(2,6-dimethylphenyl)pyridin-2-yl)sulfamoyl)pyridin-2-yl)piperidin-4-yl)acetic Acid] |
| 2070 | 763 | Cc1ccccc1-c1nc(NS(=O)(=O)c2cccc(N[C@H]3[C@@H](C(=O)O)[C@H]4C=C[C@@H]3C4)n2)ccc1C(F)(F)F (racemic) [107a 107b (racemic mixture)] |
| 1610 | – | Cc1ccccc1-c1nc(NS(=O)(=O)c2cccc(N3CCC[C@](C)(CC(=O)O)C3)n2)ccc1C(F)(F)F (single isomer, unassigned) [Compound 123] |
| 2040 | 513 | Cc1ccc(F)cc1-c1nc(NS(=O)(=O)c2cccc(N(C)CCC(=O)O)n2)ccc1C(F)(F)F [Compound 48, 3-((6-(N-(6-(5-fluoro-2-methylphenyl)-5-(trifluoromethyl)pyridin-2-yl)sulfamoyl)pyridin-2-yl)(methyl)amino)propanoic Acid] |
| 670 | 699 | Cc1cccc(C)c1-c1nc(NS(=O)(=O)c2cccc(N(CCCC(=O)O)CC(C)C)n2)ccc1Cl [Compound 155, 4-((6-(N-(5-chloro-6-(2,6-dimethylphenyl)pyridin-2-yl)sulfamoyl)pyridin-2-yl)(isobutyl)amino)butanoic Acid] |
| 1830 | – | CCN(CCC(=O)O)c1cccc(S(=O)(=O)Nc2ccc(C(F)(F)F)c(-c3c(C)cccc3C)n2)n1 [Compound 145, 3-((6-(N-(6-(2,6-dimethylphenyl)-5-(trifluoromethyl)pyridin-2-yl)sulfamoyl)pyridin-2-yl)(ethyl)amino)propanoic Acid] |
| 1600 | – | Cc1ccccc1-c1nc(NS(=O)(=O)c2cccc(N3CCCC(C)(CC(=O)O)C3)n2)ccc1C(F)(F)F (stereo not drawn) [Compound 51, 2-(3-methyl-1-(6-(N-(6-(o-tolyl)-5-(trifluoromethyl)pyridin-2-yl)sulfamoyl)pyridin-2-yl)piperidin-3-yl)acetic Acid] |
| 2320 | 700 | Cc1ccccc1-c1nc(NS(=O)(=O)c2cccc(N[C@@H]3[C@@H]4CC[C@@H](C4)[C@@H]3C(=O)O)n2)ccc1C(F)(F)F (racemic) [109a 109b (racemic mixture)] |
| 1780 | – | CCN(CCC(=O)O)c1cccc(S(=O)(=O)Nc2ccc(C(F)(F)F)c(-c3cc(F)ccc3C3CC3)n2)n1 [Compound 111, 3-((6-(N-(6-(2-cyclopropyl-5-fluorophenyl)-5-(trifluoromethyl)pyridin-2-yl)sulfamoyl)pyridin-2-yl)(ethyl)amino)propanoic Acid] |
| 930 | 686 | Cc1ccccc1-c1nc(NS(=O)(=O)c2cccc(N(CCCC(=O)O)CC(C)C)n2)ccc1Cl [Compound 154, 4-((6-(N-(5-chloro-6-(o-tolyl)pyridin-2-yl)sulfamoyl)pyridin-2-yl)(isobutyl)amino)butanoic Acid] |
| 1150 | 802 | Cc1ccccc1-c1nc(NS(=O)(=O)c2cccc(N(CCC(=O)O)C3CCC3)n2)ccc1C(F)(F)F [Compound 147, 3-(cyclobutyl(6-(N-(6-(o-tolyl)-5-(trifluoromethyl)pyridin-2-yl)sulfamoyl)pyridin-2-yl)amino)propanoic acid] |
| 2000 | 369 | Cc1c(F)cccc1-c1nc(NS(=O)(=O)c2cccc(N3CCC(C)(CC(=O)O)C3)n2)ccc1C(F)(F)F (stereo not drawn) [Compound 54, 2-(1-(6-(N-(6-(3-fluoro-2-methylphenyl)-5-(trifluoromethyl)pyridin-2-yl)sulfamoyl)pyridin-2-yl)-3-methylpyrrolidin-3-yl)acetic Acid] |
| 1770 | 715 | CCc1ccc(F)cc1-c1nc(NS(=O)(=O)c2cccc(N(CCC(=O)O)C3CC3)n2)ccc1C(F)(F)F [Compound 113, 3-(cyclopropyl(6-(N-(6-(2-ethyl-5-fluorophenyl)-5-(trifluoromethyl)pyridin-2-yl)sulfamoyl)pyridin-2-yl)amino)propanoic Acid] |
| 970 | – | CCN(CCCC(=O)O)c1cccc(S(=O)(=O)Nc2ccc(C(F)(F)F)c(-c3ccccc3C(C)C)n2)n1 [Compound 89, 4-(ethyl(6-(N-(6-(2-isopropylphenyl)-5-(trifluoromethyl)pyridin-2-yl)sulfamoyl)pyridin-2-yl)amino)butanoic Acid] |
| 1300 | 969 | CC1(C(=O)O)CCCN(c2cccc(S(=O)(=O)Nc3ccc(Cl)c(-c4ccccc4-c4ccccc4)n3)n2)C1 (stereo not drawn) [Compound 29, 1-(6-(N-(6-([1,1′-biphenyl]-2-yl)-5-chloropyridin-2-yl)sulfamoyl)pyridin-2-yl)-3-methylpiperidine-3-carboxylic Acid] |
| 1980 | 463 | Cc1ccc(F)cc1-c1nc(NS(=O)(=O)c2cccc(N(C)CC3(C(=O)O)CCOCC3)n2)ccc1C(F)(F)F [Compound 138, 4-(((6-(N-(6-(5-fluoro-2-methylphenyl)-5-(trifluoromethyl)pyridin-2-yl)sulfamoyl)pyridin-2-yl)(methyl)amino)methyl)tetrahydro-2H-pyran-4-carboxylic Acid] |
| 2070 | 569 | Cc1ccccc1-c1nc(NS(=O)(=O)c2cccc(N[C@@H]3[C@H]4CC[C@H](C4)[C@@H]3C(=O)O)n2)ccc1C(F)(F)F (racemic) [108a 108b (racemic mixture)] |
| 2400 | 370 | Cc1c(F)cccc1-c1nc(NS(=O)(=O)c2cccc(N3CCC(C)(CC(=O)O)CC3)n2)ccc1C(F)(F)F [Compound 13, 2-(1-(6-(N-(6-(3-fluoro-2-methylphenyl)-5-(trifluoromethyl)pyridin-2-yl)sulfamoyl)pyridin-2-yl)-4-methylpiperidin-4-yl)acetic Acid] |
| 1850 | 271 | Cc1ccccc1-c1nc(NS(=O)(=O)c2cccc(NCC(C)(C)C(=O)O)n2)ccc1C(F)(F)F [Compound 8, 2,2-dimethyl-3-((6-(N-(6-(o-tolyl)-5-(trifluoromethyl)pyridin-2-yl)sulfamoyl)pyridin-2-yl)amino)propanoic Acid] |
